We go through 15 compounds from patent US8003369B2, “Bacteriolytic agent” (priority 2005, dated 2011).

System in the first data set: not given
Experiment: not given
The note with it: 25° C.; cited from earlier work.
Consider `O=C(O)[C@H](O)[C@@H](O)[C@H](O)[C@H](O)CO` [gluconic acid], for which the “pKa (pKa1, first stage dissociation constant)” value is 2.2. As for `O=C(O)CCCCCCCC(=O)O` [azelaic acid], the “pKa (pKa1, first stage dissociation constant)” value is recorded as 4.6.

With `O=C(O)c1cc(C(=O)O)c(C(=O)O)cc1C(=O)O` [pyromellitic acid], the “pKa (pKa1, first stage dissociation constant)” value is recorded as 1.9. In the case of `COP(=O)(O)O` [methylphosphoric acid], the “pKa (pKa1, first stage dissociation constant)” value is given as 1.5. In the case of `N[C@@H](CCC(=O)O)C(=O)O` [glutamic acid], the “pKa (pKa1, first stage dissociation constant)” value was 2.3. Consider `CCOP(=O)(O)O` [ethylphosphoric acid], for which the “pKa (pKa1, first stage dissociation constant)” value is listed as 1.6.

For the compound `O=C(O)CCCC(=O)O` [glutaric acid], the “pKa (pKa1, first stage dissociation constant)” value is recorded as 4.3. On to `CCCCCC(=O)O` [caproic acid], for which the “pKa (pKa1, first stage dissociation constant)” value is 4.9.

The data set is the same for the next values; noted with them: second stage dissociation; cited from earlier work.
As to `O=C(O)CCCCC(=O)O` [adipic acid], the pKa2 is on record as 5.3.

In the next data set the test system is Escherichia coli (E-coli) cell. In words: Bacteriolytic power (number of bacterial cells after 3 days vs blank). The note with it: 50 μl of agent diluted to 50% as surfactant in 0.5 ml E. coli cell solution, 20° C. The format is cell-based. The protocol: Into a 2 ml-screw tube were added 0.5 ml of a solution of an Escherichia coli (E-coli) cell and 50 μl of a bacteriolytic agent aqueous diluted solution which had been diluted so as to be a concentration of 50% as a surfactant with a micropipette, and the mixture was mixed well. The mixture was stored by allowing to stand at 20° C. for 3 days, which was used as a sample, and the number of bacterium cells was measured with a super deep profile measurement microscope (manufactured by KEYENCE CORPORATION, VK-8500). Bacteriolytic power was calculated by a following equation.
As a blank, 50 μl of ion-exchanged water was used in place of a bacteriolytic agent aqueous diluted solution. Bacteriolytic power (%)=[1−(the number of bacterial cells in sample after 3 days/the number of bacterial cells of blank)]×100 Determination Criteria: […]
In the case of “cyclopentanetetracarboxylic acid salt of distearyldimethylammonium [Example 5]”, the “Bacteriolytic power (score)” value is given as 4 (60% ≦ Bacteriolytic power < 80%).

For “citric acid salt of didecyldimethylammonium [Example 2]”, the “Bacteriolytic power (score)” value is 5 (Bacteriolytic power ≧ 80%). On the same count and under the same terms, next, `CC(=O)[O-].CCCCCCCCCC[N+](C)(C)CCCCCCCCCC` [Example 4, acetate salt of didecyldimethylammonium]: 5 (Bacteriolytic power ≧ 80%). On the same count and under the same terms, as for `CCCCCCCCCC[N+](C)(C)CCCCCCCCCC.[Cl-]` [compound 3, didecyldimethylammonium chloride, reference compound], the figure is 4 (60% ≦ Bacteriolytic power < 80%). Still for that read-out and setting: as for “cyclopentane tetracarboxylic acid salt of didecyldimethylammonium [Example 1]”, the figure is 5 (Bacteriolytic power ≧ 80%); as for “adipate salt of didecyldimethylammonium [Example 3]”, 5 (Bacteriolytic power ≧ 80%).
